# In US20040142972A1, “CNS target modulators” (Hypnion, Inc., priority 2001, published 2004):
# Numbering of substitutions follows the chain as printed. Counter-ions that a name gives are not always drawn. Like-named read-outs stand apart in the source and are kept apart here.
# How the values were obtained:
# Male Wistar rats = experiment: Sleep-wakefulness, locomotor activity and body temperature monitoring (SCORE-2000) in rats
# muscarinic1 binding site = target: T1, muscarinic1 binding site (Bos taurus, UniProt F1N5C5); experiment: biochemical
# T1 sequence (F1N5C5 1-460): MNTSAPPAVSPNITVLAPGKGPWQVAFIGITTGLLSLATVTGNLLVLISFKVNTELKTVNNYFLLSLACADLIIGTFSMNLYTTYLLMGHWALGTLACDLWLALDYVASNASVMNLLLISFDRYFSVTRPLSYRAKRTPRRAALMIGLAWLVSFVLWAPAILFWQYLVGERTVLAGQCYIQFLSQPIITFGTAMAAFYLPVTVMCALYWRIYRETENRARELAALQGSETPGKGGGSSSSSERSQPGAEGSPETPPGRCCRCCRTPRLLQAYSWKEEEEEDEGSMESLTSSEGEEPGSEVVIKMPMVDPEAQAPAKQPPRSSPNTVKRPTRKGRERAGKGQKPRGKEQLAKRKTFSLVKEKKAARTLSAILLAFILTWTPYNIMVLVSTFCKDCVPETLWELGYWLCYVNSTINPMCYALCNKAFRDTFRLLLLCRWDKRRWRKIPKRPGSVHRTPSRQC
# histamine receptor, H1 = target: T2, histamine receptor, H1 (Bos taurus, UniProt P30546); experiment: H1 binding assay, displacement of [3H]Pyrilamine, bovine cerebellar membranes
# T2 construct: from tissue; host or cells: bovine cerebellar membranes (per earlier reading)
# [1] = target: T3, cloned muscarinic - M2 binding site (Homo sapiens, UniProt P08172); experiment: Muscarinic M2 binding assay, [3H]-Scopolamine N-Methyl Chloride, human recombinant expressed in CHO cells
# T3 construct: expressed in transfected cells; host or cells: CHO cells
# T3 sequence (P08172 1-466): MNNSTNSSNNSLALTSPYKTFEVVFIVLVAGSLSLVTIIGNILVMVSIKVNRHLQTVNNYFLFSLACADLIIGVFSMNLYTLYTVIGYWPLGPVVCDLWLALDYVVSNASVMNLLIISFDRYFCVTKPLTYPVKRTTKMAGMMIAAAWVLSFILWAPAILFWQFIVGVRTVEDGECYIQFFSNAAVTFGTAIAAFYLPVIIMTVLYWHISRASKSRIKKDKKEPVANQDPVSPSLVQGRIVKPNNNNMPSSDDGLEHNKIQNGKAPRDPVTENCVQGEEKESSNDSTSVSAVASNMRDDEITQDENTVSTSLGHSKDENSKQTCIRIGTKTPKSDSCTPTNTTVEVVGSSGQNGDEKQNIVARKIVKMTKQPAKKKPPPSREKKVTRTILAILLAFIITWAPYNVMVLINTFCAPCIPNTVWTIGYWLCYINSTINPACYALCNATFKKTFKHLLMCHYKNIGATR
# [2] = target: T4, cloned muscarinic - M3 binding site (Homo sapiens, UniProt P20309); experiment: Muscarinic M3 binding assay, [3H]-Scopolamine N-Methyl Chloride, human recombinant expressed in CHO cells
# T4 construct: expressed in transfected cells; host or cells: CHO cells
# [3] = target: T5, cloned muscarinic - M1 binding site (Homo sapiens, UniProt P11229); experiment: Muscarinic M1 binding assay, [3H]-Scopolamine N-Methyl Chloride, human recombinant expressed in CHO cells
# T5 construct: expressed in transfected cells; host or cells: CHO cells
# T5 sequence (P11229 1-460): T1 sequence (F1N5C5 1-460) with A206T, T265A, A315T, R331K, E335D
# [4] = Table 6, read-out: Receptor Binding Data (Ki nM) H1
# [5] = Table 6, human recombinant, read-out: Receptor Binding Data (Ki nM) M2
# [6] = Table 6, human recombinant, read-out: Receptor Binding Data (Ki nM) M3
# [7] = Table 6, human recombinant, read-out: Receptor Binding Data (Ki nM) M1
# [8] = Series 11 compounds, Table 5, unit inferred, read-out: H1 Ki
# [9] = Series 11 compounds, Table 5, unit inferred, receptor source not given
# [10] = Series 11 compounds, Table 5, unit inferred, receptor source not given, read-out: M2 Ki
# [11] = Series 11 compounds, Table 5, unit inferred, receptor source not given, read-out: M3 Ki
# [12] = Series 11 compounds, Table 5, unit inferred, receptor source not given, read-out: M1 Ki
# [13] = Series 11 compounds, Table 5, unit inferred
# T2 sequence (P30546 whole entry): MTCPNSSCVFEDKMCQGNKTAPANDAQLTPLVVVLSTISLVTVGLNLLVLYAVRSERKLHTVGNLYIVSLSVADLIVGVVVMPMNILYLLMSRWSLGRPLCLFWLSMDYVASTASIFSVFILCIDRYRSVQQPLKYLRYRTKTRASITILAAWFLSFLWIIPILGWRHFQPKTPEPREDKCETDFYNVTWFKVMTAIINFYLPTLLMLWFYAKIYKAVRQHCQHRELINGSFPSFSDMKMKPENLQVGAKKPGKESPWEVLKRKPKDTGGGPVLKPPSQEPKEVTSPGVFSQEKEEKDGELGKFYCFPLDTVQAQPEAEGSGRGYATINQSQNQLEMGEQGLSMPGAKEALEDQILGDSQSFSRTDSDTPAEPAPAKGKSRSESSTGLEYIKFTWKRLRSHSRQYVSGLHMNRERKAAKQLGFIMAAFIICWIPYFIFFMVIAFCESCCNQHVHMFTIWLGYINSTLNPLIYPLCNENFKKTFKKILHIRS
# T4 sequence (P20309 whole entry): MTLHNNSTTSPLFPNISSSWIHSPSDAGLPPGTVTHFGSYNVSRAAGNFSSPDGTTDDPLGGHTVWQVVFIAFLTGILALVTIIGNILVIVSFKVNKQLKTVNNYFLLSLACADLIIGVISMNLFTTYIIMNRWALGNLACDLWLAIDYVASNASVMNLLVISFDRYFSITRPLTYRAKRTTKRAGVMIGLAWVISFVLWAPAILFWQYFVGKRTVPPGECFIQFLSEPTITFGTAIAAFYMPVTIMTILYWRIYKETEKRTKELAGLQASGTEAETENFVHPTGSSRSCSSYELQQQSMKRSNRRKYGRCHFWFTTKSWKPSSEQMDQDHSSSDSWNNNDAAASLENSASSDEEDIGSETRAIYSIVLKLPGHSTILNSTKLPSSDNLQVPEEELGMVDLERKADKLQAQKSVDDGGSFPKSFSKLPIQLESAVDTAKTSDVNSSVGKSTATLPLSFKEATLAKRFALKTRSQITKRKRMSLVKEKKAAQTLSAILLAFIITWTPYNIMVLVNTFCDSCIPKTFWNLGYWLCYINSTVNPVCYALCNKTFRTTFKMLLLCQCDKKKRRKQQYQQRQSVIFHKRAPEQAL
structure (smiles),measurement,setting,value
"Cc1ccc(-c2nc3ccc(C)cn3c2CC(=O)N(C)C)cc1 [Ambien, Zolpidem, reference compound]",Motor Inhibition,"Male Wistar rats; 30 mg/kg IP, at CT-18, rats",YES
same,REM Inhibition,"Male Wistar rats; 30 mg/kg IP, at CT-18, rats",YES
same,Rebound Insomnia,"Male Wistar rats; 30 mg/kg IP, at CT-18, rats",YES
CN1[C@@H]2CC[C@H]1C[C@@H](OC(=O)C(CO)c1ccccc1)C2 (stereo partly drawn) [Atropine],Ki,muscarinic1 binding site,0.4 nM
"O=C(O)CCN1CCC(OC(c2ccccc2)c2ccccc2)CC1 [Compound 6a, 3-[4-(dipbenylmethoxy)piperidin-1-yl]propanoic acid hydrochloride]",Ki,"histamine receptor, H1; [4]",56.1 nM
same,Ki,[1]; [5],> 10000 nM
same,Ki,[2]; [6],8900 nM
same,Ki,[3]; [7],> 10000 nM
O=C(O)CN1CCC(=C2c3ccccc3COc3ccccc32)CC1 [Compound 7a],Ki,"histamine receptor, H1; [4]",55.1 nM
O=C(O)CCN1CCC(=C2c3ccccc3COc3ccccc32)CC1 [Compound 8a],Ki,"histamine receptor, H1; [4]",62.5 nM
same,Ki,[1]; [5],> 10000 nM
same,Ki,[2]; [6],> 10000 nM
same,Ki,[3]; [7],> 10000 nM
O=C(O)CCN1CCC(=C(c2ccccc2)c2ccccc2)CC1 [Compound 11a],Ki,"histamine receptor, H1; [8]",119 nM
same,IC50,[1]; [9],> 10000 nM
same,Ki,[1]; [10],> 10000 nM
same,IC50,[2]; [9],> 10000 nM
same,Ki,[2]; [11],> 10000 nM
same,IC50,[3]; [9],> 10000 nM
same,Ki,[3]; [12],> 10000 nM
"CC(C)OC(=O)CCN1CCC(=C(c2ccccc2)c2ccccc2)CC1 [Compound 11d, Isopropyl 3-[4-(diphenylmethylidene)piperidin-1-yl]propanoate]",Ki,"histamine receptor, H1; [8]",147 nM
same,IC50,[1]; [9],829 nM
same,Ki,[1]; [10],270 nM
same,IC50,[2]; [9],6080 nM
same,Ki,[2]; [11],2700 nM
same,IC50,[3]; [9],8000 nM
same,Ki,[3]; [12],696 nM
"CC(C)COC(=O)CCN1CCC(=C(c2ccccc2)c2ccccc2)CC1 [Compound 11e, Isobutyl 3-[4-(diphenylmethylidene)piperidin-1-yl]propanoate]",Ki,"histamine receptor, H1; [8]",279 nM
same,IC50,[1]; [9],3550 nM
same,Ki,[1]; [10],1150 nM
same,IC50,[2]; [9],2590 nM
same,Ki,[2]; [11],710 nM
same,IC50,[3]; [9],3760 nM
same,Ki,[3]; [12],289 nM
"O=C(CCN1CCC(=C(c2ccccc2)c2ccccc2)CC1)OC1CCCC1.O=C(O)C(=O)O [Compound 11f, Cyclopentyl 3-[4-(diphenylmethylidene)piperidin-1-yl]propanoate, oxalic acid salt]",Ki,"histamine receptor, H1; [8]",416 nM
same,"cumulative effect on total sleep time (TST) during the initial 5 hours post-treatment, relative to baseline","Male Wistar rats; 11f 30 mg/kg versus Zolpidem 10 mg/kg, rats, FIG. 1(b)",induced more TST than Zolpidem
same,locomotor activity,"Male Wistar rats; male Wistar rats, IP at CT-18, 10 and 30 mg/kg",reduction in locomotor activity
same,"sleep continuity, as assessed by sleep bout length","Male Wistar rats; male Wistar rats, IP at CT-18, 10 and 30 mg/kg, relative to vehicle control",increased sleep continuity
same,total sleep time,"Male Wistar rats; male Wistar rats, IP at CT-18, both 30 mg/kg and 10 mg/kg",significantly increased total sleep time for 3 hours post-treatment
same,"soporific effects (nonREM sleep time, sleep continuity)","Male Wistar rats; male Wistar rats, intraperitoneal bolus at CT-18, 11f 30 and 10 mg/kg, 6f and 15f 30 mg/kg",robust soporific effects
same,IC50,[3]; [9],2210 nM
same,Ki,[3]; [12],170 nM
O=C(CCN1CCC(=C(c2ccccc2)c2ccccc2)CC1)O[C@H]1CCOC1 [Compound 11g],IC50,"histamine receptor, H1; [13]",196 nM
same,Ki,"histamine receptor, H1; [8]",86.1 nM
O=C(CCN1CCC(=C(c2ccccc2)c2ccccc2)CC1)OC1CCOC1 (stereo not drawn) [Compound 11h],IC50,"histamine receptor, H1; [13]",201 nM
same,Ki,"histamine receptor, H1; [8]",88.3 nM
same,IC50,[1]; [9],2140 nM
same,Ki,[1]; [10],697 nM
same,IC50,[2]; [9],2200 nM
same,Ki,[2]; [11],603 nM
same,IC50,[3]; [9],2240 nM
same,Ki,[3]; [12],172 nM
O=C(CCN1CCC(=C(c2ccccc2)c2ccccc2)CC1)OC1CCOCC1 [Compound 11i],IC50,"histamine receptor, H1; [13]",200 nM
same,Ki,"histamine receptor, H1; [8]",87.8 nM
same,IC50,[1]; [9],221 nM
same,Ki,[1]; [10],72 nM
same,IC50,[2]; [9],2330 nM
same,Ki,[2]; [11],1030 nM
same,IC50,[3]; [9],221 nM
same,Ki,[3]; [12],17 nM
Cc1ccc(/C(=C\CN2CCCC2)c2cccc(C(=O)O)n2)cc1 [Compound 16a],Ki,[1],> 10000 nM
same,Ki,[2]; [6],> 10000 nM
same,Ki,[3]; [7],> 10000 nM
O=C(O)CCCN1CCC(OC(c2ccccc2)c2ccccc2)CC1 [Compound 53a],Ki,"histamine receptor, H1; [4]",16.1 nM
same,Ki,[1]; [5],> 10000 nM
same,Ki,[2]; [6],> 10000 nM
same,Ki,[3]; [7],> 10000 nM
O=C(O)CCCN1CCC(=C2c3ccccc3COc3ccccc32)CC1 [Compound 73a],Ki,"histamine receptor, H1; [4]",42.8 nM
same,Ki,[1]; [5],> 10000 nM
same,Ki,[2]; [6],> 10000 nM
same,Ki,[3]; [7],> 10000 nM
CC(C)(CN1CCC(=C2c3ccccc3COc3ccccc32)CC1)C(=O)O [Compound 74a],Ki,"histamine receptor, H1; [4]",109 nM
same,Ki,[1]; [5],> 10000 nM
same,Ki,[2]; [6],> 10000 nM
same,Ki,[3]; [7],> 10000 nM
CC(C)(CCN1CCC(=C2c3ccccc3COc3ccccc32)CC1)C(=O)O [Compound 75a],Ki,"histamine receptor, H1; [4]",47.9 nM
same,Ki,[1]; [5],3330 nM
same,Ki,[2]; [6],> 10000 nM
same,Ki,[3]; [7],> 10000 nM
"CN(C)CCCSC(=N)N [Dimaprit, reference compound]",Ki,"histamine receptor, H1; reference compounds, bovine cerebellar membranes, [3H]Pyrilamine 2.0 nM, read-out: Ki",> 10000 nM
"COc1ccccc1CNCCCCCCNCCCCCCCCNCCCCCCNCc1ccccc1OC [Methoctramine, reference compound]",Ki,"[2]; reference compounds, M3 human recombinant in CHO cells, read-out: Ki",700 nM
same,Ki,[3],29.7 nM
Cc1scc2c1N(C(=O)CN1CCN(C)CC1)c1ccccc1NC2=O [Telenzepine],Ki,muscarinic1 binding site,64.5 nM
CC(C)OC(=O)CN1CCC(=C2c3ccccc3COc3ccccc32)CC1 [dox7d-oxalate],Ki,"histamine receptor, H1; [4]",198 nM
same,Ki,[1]; [5],> 10000 nM
same,Ki,[2]; [6],> 10000 nM
same,Ki,[3]; [7],> 10000 nM
